Values joined by “and” are separate entries in the source; they are usually repeats but may differ in a detail not shown here. Equal values may be shown once. Inconclusive results and toxic doses are left out. Cut-off read from the data, not from the text of the source: active = T/C of 150% or more; inactive = T/C below 125%.
Test system: L1210 leukemia ip in BDF1 mice, survival T/C
Assay: NCI In Vivo Anticancer Drug Screen. Data for tumor model L1210 Leukemia (intraperitoneal) in B6D2F1 (BDF1) mice
Conditions: endpoint: mean survival time, higher = longer survival
How it was run: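 In this screen, tumor-bearing mice given compound are compared to those given vehicle, and their survival values are reported as a treated-to-control quotient.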

[1] = dose: 50.0 mg/kg/injection, schedule: Q04DX003 (ip), vehicle: Klucel (hydroxypropylcellulose) (HPC)
[2] = dose: 100.0 mg/kg/injection, schedule: Q04DX003 (ip), vehicle: Klucel (hydroxypropylcellulose) (HPC)
[3] = dose: 200.0 mg/kg/injection, schedule: Q04DX003 (ip), vehicle: Klucel (hydroxypropylcellulose) (HPC)
[4] = dose: 100.0 mg/kg/injection, schedule: Q01DX009 (ip), vehicle: Klucel (hydroxypropylcellulose) (HPC)
[5] = dose: 200.0 mg/kg/injection, schedule: Q01DX009 (ip), vehicle: Klucel (hydroxypropylcellulose) (HPC)
[6] = dose: 400.0 mg/kg/injection, schedule: Q04DX003 (ip), vehicle: Klucel (hydroxypropylcellulose) (HPC)
[7] = dose: 400.0 mg/kg/injection, schedule: Q01DX009 (ip), vehicle: Klucel (hydroxypropylcellulose) (HPC)
[8] = dose: 100.0 mg/kg/injection, schedule: Q04DX003 (ip), vehicle: saline with Tween-80
[9] = dose: 200.0 mg/kg/injection, schedule: Q04DX003 (ip), vehicle: saline with Tween-80
[10] = dose: 100.0 mg/kg/injection, schedule: Q01DX009 (ip), vehicle: saline with Tween-80
[11] = dose: 200.0 mg/kg/injection, schedule: Q01DX009 (ip), vehicle: saline with Tween-80

Measured: T/C

S=c1[nH]c2[nH]cnc(=S)c2[nH]1
inactive: dose: 100.0 mg/kg/injection, schedule: Q01DX001 (ip), vehicle: saline 97 % of control | dose: 200.0 mg/kg/injection, schedule: Q01DX001 (ip), vehicle: saline 97 % of control

CNC(=S)N/N=C/c1ccccn1
inactive: dose: 25.0 mg/kg/injection, schedule: Q04DX003 (ip), vehicle: Klucel (hydroxypropylcellulose) (HPC) 112 % of control | [1] 97 % of control | [2] 93 % of control | [3] 101 % of control

O=C(O)C1(O)C(Cl)(Cl)C(Cl)=C(Cl)C1(Cl)Cl
inactive: dose: 50.0 mg/kg/injection, schedule: Q01DX009 (ip), vehicle: saline sonified 103 % of control | [1] 92 % of control | dose: 100.0 mg/kg/injection, schedule: Q01DX009 (ip), vehicle: saline sonified 105 % of control | [2] 97 % of control and 100 % of control | [3] 111 % of control

N#CC(/C=C/c1ccco1)Nc1ccccc1C(N)=O (centres undefined)
inactive: [4] 121 % of control | [2] 93 % of control | [5] 121 % of control | [3] 94 % of control | [6] 100 % of control

CC12CCC(C1)C(C)(C)C2[N+]#N (centres undefined)
inactive: dose: 75.0 mg/kg/injection, schedule: Q01DX001 (ip), vehicle: saline 105 % of control

CSc1ccc(NC(=O)Nc2cccc(O)c2)cc1
inactive: [4] 101 % of control | [2] 101 % of control | [5] 103 % of control | [3] 106 % of control | [7] 101 % of control | [6] 98 % of control

CCC(c1ccc(OC)cc1)C(CC)c1ccc(O)c(CN2CCN(C)CC2)c1 (centres undefined)
inactive: [8] 94 % of control | [9] 94 % of control | dose: 400.0 mg/kg/injection, schedule: Q04DX003 (ip), vehicle: saline with Tween-80 94 % of control

CCSC(Sc1ccccc1)C(SCC)C(OC(=O)c1ccccc1)C(OC(=O)c1ccccc1)C(COC(=O)c1ccccc1)OC(=O)c1ccccc1 (centres undefined)
inactive: dose: 75.0 mg/kg/injection, schedule: Q01DX001 (ip), vehicle: other 95 % of control | dose: 150.0 mg/kg/injection, schedule: Q01DX001 (ip), vehicle: other 90 % of control | dose: 300.0 mg/kg/injection, schedule: Q01DX001 (ip), vehicle: other 94 % of control

CN(C)C(=S)[S][Sn]([c]1ccccc1)([c]1ccccc1)[c]1ccccc1
inactive: dose: 1.25 mg/kg/injection, schedule: Q01DX009 (ip), vehicle: saline with Tween-80 88 % of control | dose: 1.25 mg/kg/injection, schedule: Q04DX003 (ip), vehicle: saline with Tween-80 99 % of control | dose: 2.5 mg/kg/injection, schedule: Q01DX009 (ip), vehicle: saline with Tween-80 93 % of control | dose: 2.5 mg/kg/injection, schedule: Q04DX003 (ip), vehicle: saline with Tween-80 99 % of control | dose: 5.0 mg/kg/injection, schedule: Q01DX001 (ip), vehicle: steriod suspending solution 95 % of control | dose: 5.0 mg/kg/injection, schedule: Q01DX009 (ip), vehicle: Klucel (hydroxypropylcellulose) (HPC) 101 % of control | dose: 5.0 mg/kg/injection, schedule: Q01DX009 (ip), vehicle: saline with Tween-80 106 % of control | dose: 5.0 mg/kg/injection, schedule: Q04DX003 (ip), vehicle: Klucel (hydroxypropylcellulose) (HPC) 92 % of control | dose: 5.0 mg/kg/injection, schedule: Q04DX003 (ip), vehicle: saline with Tween-80 98 % of control | dose: 10.0 mg/kg/injection, schedule: Q01DX001 (ip), vehicle: steriod suspending solution 101 % of control | dose: 10.0 mg/kg/injection, schedule: Q01DX009 (ip), vehicle: Klucel (hydroxypropylcellulose) (HPC) 92 % of control | dose: 10.0 mg/kg/injection, schedule: Q04DX003 (ip), vehicle: Klucel (hydroxypropylcellulose) (HPC) 97 % of control | dose: 20.0 mg/kg/injection, schedule: Q01DX009 (ip), vehicle: Klucel (hydroxypropylcellulose) (HPC) 103 % of control | dose: 20.0 mg/kg/injection, schedule: Q04DX003 (ip), vehicle: Klucel (hydroxypropylcellulose) (HPC) 91 % of control | dose: 40.0 mg/kg/injection, schedule: Q01DX001 (ip), vehicle: steriod suspending solution 92 % of control

CCc1ccccc1NC(=O)N1CCCCC1C (centres undefined)
inactive: [4] 102 % of control | [5] 94 % of control

COC(=O)c1c(Cl)c(Cl)c(Cl)c(Cl)c1C(=O)OC
inactive: [4] 96 % of control | [10] 96 % of control | [2] 95 % of control | [8] 100 % of control | [5] 102 % of control | [11] 91 % of control | [3] 96 % of control | [9] 100 % of control | [7] 107 % of control | [6] 95 % of control

ClC(Cl)(Cl)C(Nc1ccccc1)Nc1ccccc1
inactive: [4] 87 % of control | [2] 94 % of control | [5] 96 % of control | [3] 90 % of control | [7] 91 % of control | [6] 92 % of control

C=C(Br)CNC(=O)C(=O)OCC
inactive: dose: 50.0 mg/kg/injection, schedule: Q01DX009 (ip), vehicle: saline with Tween-80 97 % of control | [10] 94 % of control | dose: 132.0 mg/kg/injection, schedule: Q04DX003 (ip), vehicle: saline with Tween-80 93 % of control | [11] 97 % of control | [9] 90 % of control | dose: 300.0 mg/kg/injection, schedule: Q04DX003 (ip), vehicle: saline with Tween-80 96 % of control

CC(Cc1ccccc1)N(C)C (centres undefined)
inactive: dose: 12.5 mg/kg/injection, schedule: Q01DX001 (ip), vehicle: saline 102 % of control | dose: 25.0 mg/kg/injection, schedule: Q01DX001 (ip), vehicle: saline 94 % of control | dose: 25.0 mg/kg/injection, schedule: Q04DX003 (ip), vehicle: saline 101 % of control | dose: 50.0 mg/kg/injection, schedule: Q01DX001 (ip), vehicle: saline 94 % of control | dose: 50.0 mg/kg/injection, schedule: Q04DX003 (ip), vehicle: saline 101 % of control

CCOc1cc(F)cc([N+](=O)[O-])c1
inactive: dose: 100.0 mg/kg/injection, schedule: Q01DX001 (ip), vehicle: carboxymethylcellulose (CMC) 97 % of control | dose: 200.0 mg/kg/injection, schedule: Q01DX001 (ip), vehicle: carboxymethylcellulose (CMC) 108 % of control | dose: 400.0 mg/kg/injection, schedule: Q01DX001 (ip), vehicle: carboxymethylcellulose (CMC) 89 % of control

Nc1ncnc2nc(-c3ccc(CNC(=O)CCc4ccc(S(=O)(=O)F)cc4)cc3)[nH]c12
inactive: dose: 100.0 mg/kg/injection, schedule: Q01DX001 (ip), vehicle: saline with Tween-80 89 % of control | dose: 200.0 mg/kg/injection, schedule: Q01DX001 (ip), vehicle: saline with Tween-80 89 % of control | dose: 400.0 mg/kg/injection, schedule: Q01DX001 (ip), vehicle: saline with Tween-80 89 % of control

CCOC(=O)NC1Cc2cc(C)cc(C)c21 (centres undefined)
inactive: dose: 10.0 mg/kg/injection, schedule: Q04DX002 (ip), vehicle: Klucel (hydroxypropylcellulose) (HPC) 120 % of control | dose: 20.0 mg/kg/injection, schedule: Q04DX002 (ip), vehicle: Klucel (hydroxypropylcellulose) (HPC) 100 % of control | dose: 40.0 mg/kg/injection, schedule: Q04DX002 (ip), vehicle: Klucel (hydroxypropylcellulose) (HPC) 103 % of control

O=C(COc1ccc(Cl)c(Cl)c1)NCc1ccc[n+](Cc2ccc(Cl)cc2S(=O)(=O)F)c1
inactive: [8] 100 % of control | [9] 106 % of control
